From patent US8937067B2, “Activators of human pyruvate kinase” (The United States of America, as represented by the …, priority 2008, dated 2015)

Legend:
hPK-M2 [1] = target: T1, hPK-M2 (Homo sapiens, UniProt P14618); assay: Luminescent pyruvate kinase-luciferase coupled assay (KinaseGlo); assay type: biochemical; conditions: for activation at 57 µM / hPK, M2 Max. Res.: KinaseGlo, % activation at 57 μM of compound; for activation at 57 µM: read-out: hPK, M2 Max. Res.; for AC50: luminescent pyruvate kinase-luciferase coupled assay (KinaseGlo), tables, read-out: hPK, M2 AC50
T1 sequence (P14618 whole entry): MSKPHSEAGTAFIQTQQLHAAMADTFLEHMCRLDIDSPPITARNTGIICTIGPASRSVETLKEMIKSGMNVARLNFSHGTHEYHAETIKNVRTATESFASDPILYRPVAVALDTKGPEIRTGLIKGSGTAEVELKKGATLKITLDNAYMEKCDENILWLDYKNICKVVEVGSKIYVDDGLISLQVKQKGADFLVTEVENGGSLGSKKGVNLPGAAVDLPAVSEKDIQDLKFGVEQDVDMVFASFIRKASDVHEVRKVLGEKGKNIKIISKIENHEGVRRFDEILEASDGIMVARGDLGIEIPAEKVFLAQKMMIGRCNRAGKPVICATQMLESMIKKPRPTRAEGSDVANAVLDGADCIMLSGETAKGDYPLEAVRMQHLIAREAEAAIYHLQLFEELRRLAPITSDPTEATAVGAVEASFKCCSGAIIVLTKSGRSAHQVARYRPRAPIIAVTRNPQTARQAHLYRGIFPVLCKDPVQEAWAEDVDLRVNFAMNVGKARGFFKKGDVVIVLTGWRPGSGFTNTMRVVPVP
Method in brief: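 Activation assay with 0.1 mM ADP and 0.5 mM PEP in 50 mM imidazole pH 7.2, 50 mM KCl, 7 mM MgCl2, 0.01% tween 20, 0.05% BSA; 1 h at r.t. ATP produced was read by luciferase luminescence. AC50 values were normalized to DMSO (uninhibited enzyme) and no-enzyme controls.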

hPK-M2 [2] = target: T1, hPK-M2; assay: Fluorescent pyruvate kinase-lactate dehydrogenase (LDH) coupled secondary assay; assay type: biochemical; conditions: for LDH hPK, M2 Max. Res.: % activation at 57 μM of compound; for AC50: tables, read-out: LDH hPK, M2 AC50
Method: Fluorescent Pyruvate Kinase-Lactate Dehydrogenase Coupled Secondary Assay.
Plates were immediately placed in ViewLux (Perkin Elmer) and NADH fluorescence was determined at 30 second exposure intervals for between 3 and 6 minutes. Data were normalized to the uninhibited and EC100 activation using known activators such as fructose-1,6-bis-phosphate. […] Data was collected on the Perkin Elmer Viewlux.

Row | SMILES | activation at 57 µM (hPK-M2 [1]) | AC50 (hPK-M2 [1]) | LDH hPK, M2 Max. Res. (hPK-M2 [2]) | AC50 (hPK-M2 [2]) | hPK, M2 Max. Res. (hPK-M2 [1])
1 | Nc1ccc(S(=O)(=O)N2CCN(S(=O)(=O)c3c(F)cccc3F)CC2)cc1 [Compound 123] | 82.6% | 0.651 µM | 170.98% | 0.41 µM | 
2 | COc1cc(F)c(S(=O)(=O)N2CCN(S(=O)(=O)c3cccc(N)c3)CC2)c(F)c1 [Compound 134] |  | 0.0231 µM | 141.67% | 0.073 µM | 87.00%
3 | Nc1cccc(S(=O)(=O)N2CCN(S(=O)(=O)c3c(F)cccc3F)CC2)c1 [Compound 137] |  | 0.0919 µM | 154.42% | 0.206 µM | 81.51%
4 | COc1cc(F)c(S(=O)(=O)N2CCN(S(=O)(=O)c3ccc(N)cc3)CC2)c(F)c1 [Compound 139] |  | 0.13 µM | 166.00% | 0.183 µM | 92.46%
5 | O=S(=O)(c1cccc(O)c1)N1CCN(S(=O)(=O)c2c(F)cccc2F)CC1 [Compound 140] |  | 0.183 µM | 148.41% | 0.183 µM | 89.61%
6 | COc1cc(F)c(S(=O)(=O)N2CCCN(S(=O)(=O)c3cccc(N)c3)CC2)c(F)c1 [Compound 141] |  | 0.206 µM | 157.96% | 0.146 µM | 93.20%
7 | COc1cc(F)c(S(=O)(=O)N2CCCN(S(=O)(=O)c3ccc(N)cc3)CC2)c(F)c1 [Compound 143] |  | 1.3 µM | 150.25% | 1.3 µM | 89.36%
8 | COc1cc(F)c(S(=O)(=O)N2CCN(S(=O)(=O)c3cccs3)CC2)c(F)c1 [Compound 144] |  | 0.0366 µM | 125.28% | 0.0517 µM | 95.08%
9 | COc1cc(F)c(S(=O)(=O)N2CCN(S(=O)(=O)c3ccco3)CC2)c(F)c1 [Compound 145] |  | 0.183 µM | 106.13% | 0.116 µM | 82.49%
10 | Cc1ccc(N[S+](=O)([O-])c2ccc3c(c2)CCC(=O)N3)cc1C [Compound 150] | 84% | 0.163 µM | 153.98% | 0.146 µM | 

Second part, the compound after the results:

Row | activation at 57 µM (hPK-M2 [1]) | AC50 (hPK-M2 [1]) | LDH hPK, M2 Max. Res. (hPK-M2 [2]) | AC50 (hPK-M2 [2]) | hPK, M2 Max. Res. (hPK-M2 [1]) | SMILES
11 | 88.9% | 0.0326 µM | 169.71% |  |  | Nc1cccc(S(=O)(=O)N2CCCN(S(=O)(=O)c3ccc4c(c3)OCCO4)CC2)c1 [Compound 124]
12 | 86.6% | 0.103 µM | 131.59% | 0.163 µM |  | Nc1ccc(S(=O)(=O)N2CCCN(S(=O)(=O)c3ccc4c(c3)OCCO4)CC2)cc1 [Compound 125]
13 | 83.8% | 2.91 µM | 114.61% | 2.91 µM |  | COc1cc(F)c(S(=O)(=O)N2CCCN(S(=O)(=O)c3cccc(NC(C)=O)c3)CC2)c(F)c1 [Compound 126]
14 | 96.7% | 0.0366 µM | 159.85% | 0.058 µM |  | COc1cc(F)c(S(=O)(=O)N2CCCN(S(=O)(=O)c3ccc4c(c3)OCCO4)CC2)c(F)c1 [Compound 128]
15 |  | 0.819 µM | 123.67% | 0.819 µM | 91.11% | CC(=O)Nc1cccc(S(=O)(=O)N2CCCN(S(=O)(=O)c3ccc4c(c3)OCCO4)CC2)c1 [Compound 131]
16 | 81.1% | 4.11 µM | 123.97% | 2.59 µM |  | CC(=O)Nc1ccc(S(=O)(=O)N2CCCN(S(=O)(=O)c3ccc4c(c3)OCCO4)CC2)cc1 [Compound 132]
17 |  | 1.63 µM | 94.88% | 1.03 µM | 60.00% | COc1cc(F)c(S(=O)(=O)N2CCN(S(=O)(=O)c3cccc(NC(C)=O)c3)CC2)c(F)c1 [Compound 133]
18 |  | 0.0411 µM | 98.13% | 0.146 µM | 82.08% | Nc1cccc(S(=O)(=O)N2CCN(S(=O)(=O)c3ccc4c(c3)OCCO4)CC2)c1 [Compound 135]
19 |  | 0.411 µM | 174.46% | 0.366 µM | 91.84% | Nc1ccc(S(=O)(=O)N2CCN(S(=O)(=O)c3ccc4c(c3)OCCO4)CC2)cc1 [Compound 151]
